Results reported in patent publication US20240166627A1, “Terpyridinedione compound or salt thereof, and preparation method and application thereof” (SHENZHEN SALUBRIS PHARMACEUTICALS CO., LTD., priority 2021, published 2024).
In brackets after ≈: the same amount, converted by molar mass. Values belong to the compound of their own block, whether it stands above or below them.

Experiments:
[1] = Pharmacokinetic experiment in Beagle dogs (IV and PO); assay type: in vivo; conditions: male, dog, plasma
Description: Polyethylene glycol 400 (batch number: GORKREUT, Saen Chemical Technology (Shanghai) Co., Ltd.); DMSO (batch number: 20200319, GHTECH (Guangdong) Co., Ltd.); and normal saline (batch number: C20052604, Jiangxi Kelun Pharmaceutical Co., Ltd.). An LC-MS instrument (Thermo Fisher Ultimate 3000 UPLC, TSQ QUANTUM ULTRA TSQ Quantum GC).
5 male Beagle dogs with weights being 5 kg to 7 kg, purchased from Beijing Mars Biotechnology Co., Ltd. […]
After the above mixture is given to the dogs through intragastric administration (n=3) or intravenous administration (n=2), about 1 mL of blood is collected from the forelimb or hindlimb vein with a scalp needle, respectively, at 5 min (intravenous administration only), 15 min, 30 min, 1 h, 2 h, 4 h, 6 h, 8 h, 24 h to put into blood collection tubes containing EDTA-K2 anticoagulant; centrifugation is performed for 10 min at 4000 rpm to separate plasma; and then the tubes are stored at −80° C. for testing.
A certain amount of a test sample is accurately weighted and dissolved with DMSO to 2 mg/mL, as a stock solution. The stock solution is diluted to 30000, 10000, 3000, 1000, 300, 100, 50, 30, and 10 ng/mL by using acetonitrile:water (1:1), to obtain standard curve working solutions. 5 μL of the working solution is added to 45 μL of blank canine plasma; and well mixing is performed through vortex, to prepare into standard curve samples equivalent to plasma concentrations of 3000, 1000, 300, 100, 30, 10, 5, 3, and 1 ng/mL. 30 μL of the standard curve sample and the collected plasma sample (plasma collected at 5 min, 15 min, and 30 min of intravenous administration is diluted 5-fold) are added to 150 μL of a propranolol acetonitrile solution (internal standard, 50 ng/mL) to precipitate protein, then 100 μL of water is added to well mix through vortex; centrifugation is performed for 5 min at 4000 rpm; and supernatant is taken for LC-MS analysis. LC-MS detection conditions include the following.
Chromatographic column: Waters ACQUITY™ PREMIER HSS T3, 50*2.1 mm, 1.8 μm.
Mobile phase A: water (0.1% formic acid); mobile phase B: acetonitrile; flow rate: 0.5 mL/min; and gradient elution is shown in Table 3 below.
After LC-MS detection of blood drug concentration, and a non-compartment model of WinNonlin 6.1 software is adopted to calculate pharmacokinetic parameters of beagle dogs after administration.

p38α/MK2 complex = p38α/MK2 complex (Homo sapiens, UniProt P49137+Q16539); assay: p38α/MK2 complex kinase screening experiment (IMAP FP); assay type: biochemical; conditions: p38α 0.2 nM, MK2 unactive 1 nM, HSP27 substrate 1 μM, ATP 10 μM; read-out: IC50 value that the compound inhibits p38α/MK2 complex
Experimental: A certain amount of a drug is weighted and prepared into a 10 mM of mother solution by using DMSO; the mother solution is diluted to 100 μM (100× working solution) in two steps; and then, the solution is diluted 3-fold to 33.33 μM, 11.11 μM, 3.70 μM, 1.23 μM, 0.41 μM, 0.14 μM, 0.046 μM, 0.015 μM, and 0.005 μM, successively. DMSO control is also arranged.
Then, a series of diluted DMSO drugs are diluted 25 folds with 1×IMAP Reaction Buffer as a 4× drug working solution.
10 gradient concentrations and 2 duplicated wells are set to each group of compounds; and a DMSO control group and a negative control group (DMSO, no ATP) are additionally set.
• c), after 1 h of incubation at room temperature, 1× Progressive Binding Solution is added to end the enzymatic reaction; after 30 min of incubation, a BMGPHERASTER FSX multifunctional microplate reader is used to detect a Fluorescence Polarization (FP) signal [FP(Ex485/Em520/Em520 nm)].

[2] = Determination of solubility; assay type: physicochemical; conditions: aqueous buffer, thermodynamic from solid, 37° C. 1 h
Experimental: About 0.5 mg of a to-be-tested sample in a centrifuge tube is weighted, an appropriate amount of DMSO is added to completely dissolve the sample, and then methanol is added to make up to 1 ml.
(If there are more pH values to be investigated, the preparation method may be deduced by analogy).
3. The prepared control solution and test solution are simultaneously put into a 37° C. water bath and heated for 1 h, after 1 h, the solutions are taken out and cooled to room temperature, and then the solutions are filtered with a 0.22 μm filter membrane for sample injection.
4. The concentration of the sample in the test solution is calculated according to C=(A*(ms/vs))/AS, and experiment results are shown in Table 2.
Note: ms, vs and AS are the weight, volume and peak area of the sample in the control solution, respectively.
A is the peak area of the test solution.

[3] = system: production of TNFα in U937; assay: Releasing TNFα from U937 induced by LPS; assay type: cell-based; conditions: Homo sapiens, U-937; PMA-differentiated U937, LPS 100 ng/ml, 4 h; read-out: IC50 value that the compound inhibits the production of TNFα
Description: Cytokine regulation in human monocytes has shown that the p38 pathway is the key to the biosynthesis of a plurality of pro-inflammatory cytokines including TNFα, IL-1β and IL-6. Therefore, the inhibition of the p38 MAPK pathway is to reduce inflammatory response by reducing the biosynthesis of the pro-inflammatory cytokines. […] This is a reflection of the effect of the compound in the present invention to facilitate reduction of inflammation, which is useful in the treatment of various diseases, including chronic inflammatory diseases, acute inflammatory diseases, or self-inflammatory diseases. The potency and efficacy of the p38 inhibitor in blocking cytokine production are evaluated using a human U937 cell line.
A 1640 medium with an article number being A10491-01, Gibco; penicillin-streptomycin with an article number being 15140-122, Gibco; fetal bovine serum with an article number being 10099-141C, Gibco; PBS with an article number being 10010-031, Gibco; LPS with an article number being L2880, Sigma; PMA with an article number being P1585, Sigma; dimethyl sulfoxide with an article number being D8418-1L, Sigma; and a TNFα kit with an article number being K151QWD-4, MSD.
A 96-well plate with an article number being 3599, Corning; a plate-vibrating device with an article number being QB-9002, QILINBEIER; a centrifuge with an article number being 5810R, Eppendorf; a carbon dioxide incubator with an article number being 371, Thermo; a counter with an article number being C10281, Gibco; a microscope with an article number being CKX41, OLYMPUS; and an MSD plate reader with an article number being 1201 MESO SECTOR 600, MSD.
U937, ATCC with an article number being CRL-1593.2.
About 2 mg of a drug is weighted; a mother solution is prepared to 10 mM (which is calculated by free alkali) by means of DMSO; and the mother solution is diluted 10-fold to 1 mM, and then is successively diluted 4-fold to 250 μM, 62.5 μM, 15.6 μM, 3.9 μM, 0.97 μM, 0.24 μM, and 0.061 μM. The above series of diluted DMSO drugs is diluted 20-fold as working solutions by using media.
At Day 0, 10000/well inoculation is performed, stimulation is performed for 48 h with 20 ng/ml of PMA, and culture is performed at 37° C., 5% CO2. • At Day 2, 1. Supernatant is removed from differentiated U937, cleaning is performed once with PBS, and 96 μl of the 1640 medium is added. • 2. 2 μl of the compound containing (DMSO with a final concentration being 0.1%), and culture is performed for 30 min at 37° C., 5% CO2. • 3. 2 μl of LPS (a final concentration being 100 ng/ml) is added, cells are stimulated, and culture is performed for 4 h at 37° C., 5% CO2. • 4. Centrifugation is performed, supernatant is taken, and content of TNFα in the supernatant is determined through ELISA.
The content of TNFα corresponding to each well is calculated by using a standard curve in the kit.
The compound IC50 is calculated by using a GraphPad nonlinear fitting formula, and for an experimental result, refer to Table 1.

Sequence of p38α/MK2 complex (Q16539 whole entry): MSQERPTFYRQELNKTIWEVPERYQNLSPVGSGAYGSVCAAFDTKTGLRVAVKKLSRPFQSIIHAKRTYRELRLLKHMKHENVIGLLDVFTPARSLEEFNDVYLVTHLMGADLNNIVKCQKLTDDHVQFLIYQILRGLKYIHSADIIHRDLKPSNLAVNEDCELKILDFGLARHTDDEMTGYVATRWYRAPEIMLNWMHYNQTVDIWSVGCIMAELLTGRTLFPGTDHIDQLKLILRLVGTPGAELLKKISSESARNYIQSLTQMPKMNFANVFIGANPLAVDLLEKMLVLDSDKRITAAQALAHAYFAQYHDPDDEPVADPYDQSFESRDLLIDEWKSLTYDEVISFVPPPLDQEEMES
Sequence of p38α/MK2 complex (P49137 whole entry): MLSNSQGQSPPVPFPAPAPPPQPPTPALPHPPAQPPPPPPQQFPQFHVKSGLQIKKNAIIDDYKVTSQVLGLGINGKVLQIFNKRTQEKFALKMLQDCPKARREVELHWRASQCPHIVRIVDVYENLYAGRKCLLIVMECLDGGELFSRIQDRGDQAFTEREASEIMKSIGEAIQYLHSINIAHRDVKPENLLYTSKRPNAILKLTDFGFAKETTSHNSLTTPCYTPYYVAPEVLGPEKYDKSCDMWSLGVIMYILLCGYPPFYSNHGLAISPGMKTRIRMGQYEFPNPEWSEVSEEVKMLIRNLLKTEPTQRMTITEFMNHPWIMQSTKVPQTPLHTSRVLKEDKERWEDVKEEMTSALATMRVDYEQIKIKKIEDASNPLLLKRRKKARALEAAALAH

solubility at 1 h ([2]; pH = 2.0, PBS buffer): 192 µg/mL (≈ 388 µM)
solubility at 1 h ([2]; pH = 7.4, PBS buffer): 234 µg/mL (≈ 474 µM)
Structure (SMILES): Cc1cnc(-n2cccc(C(C)(C)O)c2=O)cc1-n1c(C)cc(OCc2ncc(F)cc2F)cc1=O [Embodiment 2, 4″-((3,5-difluoropyridine-2-yl)methoxy)-3-(2-hydroxypropane-2-yl)-5′,6″-dimethyl-2H,2″H-[1,2′:4′,1″-terpyridine]-2,2″-diketone]

solubility at 1 h ([2]; pH = 2.0, PBS buffer): 769 µg/mL (≈ 1500 µM)
solubility at 1 h ([2]; pH = 7.4, PBS buffer): 773 µg/mL (≈ 1510 µM)
IC50 [3]: 6.86 nM
Structure (SMILES): Cc1cnc(-n2cccc(C(C)(C)O)c2=O)cc1-n1c(C)cc(OCc2ncccc2F)c(Cl)c1=O [Embodiment 20, 3″-chloro-4″-((3-fluoropyridine-2-yl)methoxy)-3-(2-hydroxypropane-2-yl)-5′,6″-dimethyl-2H,2″H-[1,2′:4′,1″-terpyridine]-2,2″-diketone]

IC50 [3]: 5.53 nM
Structure (SMILES): Cc1cnc(-n2cccc(C(C)(C)O)c2=O)cc1-n1c(C)cc(OCc2ccc(F)c(F)c2)c(Cl)c1=O [Embodiment 23, 3″-chloro-4″-((3,4-difluorobenzyl)oxy)-3-(2-hydroxypropane-2-yl)-5′,6″-dimethyl-2H,2″H-[1,2′:4′,1″-terpyridine]-2,2″-diketone]

IC50 [3]: 6.06 nM
Structure (SMILES): Cc1cnc(-n2cccc(C(C)(C)O)c2=O)cc1-n1c(C)cc(OCc2ncc(F)cc2Cl)c(Cl)c1=O [Embodiment 25, 3″-chloro-4″-((3-chloro-5-fluoropyridine-2-yl)methoxy)-3-(2-hydroxypropane-2-yl)-5′,6″-dimethyl-2H,2″H-[1,2′:4′,1″-terpyridine]-2,2″-diketone]

IC50 [3]: 15.1 nM
Structure (SMILES): Cc1cnc(-n2ccc(C)c(C(C)(C)O)c2=O)cc1-n1c(C)cc(OCc2ncc(F)cc2F)c(Cl)c1=O [Embodiment 29, 3″-chloro-4″-((3,5-difluoropyridine-2-yl)methoxy)-3-(2-hydroxypropane-2-yl)-4,5′,6″-trimethyl-2H, 2″H-[1,2′:4′,1″-terpyridine]-2,2″-diketone]

IC50 [3]: 11.9 nM
Structure (SMILES): Cc1cnc(-n2cccc(C(C)(C)O)c2=O)cc1-n1c(C)cc(OCc2cccnc2)c(Cl)c1=O [Embodiment 30, 3″-chloro-3-(2-hydroxypropane-2-yl)-5′,6″-dimethyl-4″-((pyridin-3-yl)methoxy)-2H,2″H-[1,2′:4′,1″-terpyridine]-2,2″-diketone]

IC50 (p38α/MK2 complex): 2.85 nM
Structure (SMILES): Cc1cnc(-n2cccc(C3CCOCC3)c2=O)cc1-n1c(C)cc(OCc2ncc(F)cc2F)c(Cl)c1=O [Embodiment 40, 3″-chloro-4″-((3,5-difluoropyridine-2-yl)methoxy)-5′,6″-dimethyl-3-(tetrahydro-2H-pyran-4-yl)-2H, 2″H-[1,2′:4′,1″-terpyridine]-2,2″-diketone]

Further lines, the compound ahead of its results:

Structure (SMILES): Cc1cnc(-n2cccc(C(C)(C)O)c2=O)cc1-n1c(C)cc(OCc2ncc(F)cc2F)c(Cl)c1=O (racemic) [Embodiment 1, 3″-chloro-4″-((3,5-difluoropyridine-2-yl)methoxy)-3-(2-hydroxypropane-2-yl)-5′,6″-dimethyl-2H,2″H-[1,2′:4′,1″-terpyridine]-2,2″-diketone]
AUC(0-t) ([1]; IV 1 mg/kg): 2870 ng·h/mL
Cmax ([1]; IV 1 mg/kg): 1510 ng/mL
clearance ([1]; IV 1 mg/kg): 6.15 mL/min/kg
bioavailability ([1]; PO 5 mg/kg vs IV 1 mg/kg): 229%

Structure (SMILES): Cc1cnc(-n2cccc(C(C)(C)O)c2=O)cc1-n1c(C)cc(OCc2ncc(F)cc2F)c(Cl)c1=O (single isomer, unassigned) [Comparative example 1A, reference compound]
IC50 (p38α/MK2 complex): 0.53 nM

Structure (SMILES): Cc1cnc(-n2cccc(C(C)(C)O)c2=O)cc1-n1c(C)cc(OCc2ccccn2)c(Cl)c1=O [Embodiment 3]
solubility at 1 h ([2]; pH = 2.0, PBS buffer): 1290 µg/mL (≈ 2610 µM)
solubility at 1 h ([2]; pH = 7.4, PBS buffer): 140 µg/mL (≈ 284 µM)
IC50 [3]: 14.7 nM

Structure (SMILES): Cc1cnc(-n2cccc(C(C)O)c2=O)cc1-n1c(C)cc(OCc2ncc(F)cc2F)c(Cl)c1=O (stereo not drawn) [Embodiment 24, 3″-chloro-4″-((3,5-difluoropyridine-2-yl)methoxy)-3-(1-hydroxyethyl)-5′,6″-dimethyl-2H,2″H-[1,2′:4 1″-terpyridine]-2,2″-diketone]
IC50 [3]: 11.2 nM

Structure (SMILES): Cc1cnc(-n2cccc(C(C)(C)O)c2=O)cc1-n1c(C)cc(OCc2ncc(C3CC3)cc2F)c(Cl)c1=O [Embodiment 27, 3″-chloro-4″-((3-fluoro-5-cyclopropylpyridine-2-yl)methoxy)-3-(2-hydroxypropane-2-yl)-5′,6″-dimethyl-2H,2″H-[1,2′:4′,1″-terpyridine]-2,2″-diketone]
IC50 [3]: 16.6 nM

Structure (SMILES): Cc1cc(C(C)(C)O)c(=O)n(-c2cc(-n3c(C)cc(OCc4ncc(F)cc4F)c(Cl)c3=O)c(C)cn2)c1 [Embodiment 35, 3″-chloro-4″-((3,5-difluoropyridine-2-yl)methoxy)-3-(2-hydroxypropane-2-yl)-5,5′,6″-trimethyl-2H, 2″H-[1,2′:4′,1″-terpyridine]-2,2″-diketone]
IC50 [3]: 24.3 nM
